Data taken from patent US6916915B1, “Stressor regulated genes” (Duke University, priority 1998, dated 2005).
“And” between values parts separate entries of the source, which are not always exact repeats. Equal entries are not always repeated.

Legend:
[1] = tested on: C. elegans; assay: Northern blot analysis of steady-state mRNA levels after cadmium exposure; type: in vivo, Caenorhabditis elegans; details: for Fold-change in mRNA levels following cadmium exposure, VL1 (Northern blot): clone VL1 (mtl-1)
Experimental: (§1) Growth and isolation of C. elegans—The N2 strain of C. elegans was grown in liquid S medium (0.1M NaCl, 50 mM potassium phosphate, pH 6.0, 5 μg/ml cholesterol, 10 mM potassium citrate, 3 mM CaCl2, 3 mM MgCl2, 50 μM EDTA, 25 μM FeSO4, 10 μM MnCl2, 10 μM ZnSO4 and 1 μM CuSO4) using E. coli OP50 as a food source (Brenner, S. (1974) Genetics 77, 71-94). In experiments where nematodes were exposed to cadmium, the medium was supplemented with 100 μM CdCl2 (Freedman, J. H. et al. (1993) J. Biol. Chem. 268, 2554-2564). C. elegans were grown in the presence of metal for 8 h or 24 h at ˜20° C. Nematodes were then collected following centrifugation at 800×g for 5 min. Pellets were suspended in 5 mM NaCl containing 35% sucrose (final concentration) and viable nematodes were collected from the top of the solution following centrifugation at 1000×g for 5 min at 4° C. Nematodes were then washed three times by suspension in M9 buffer (22 mM KH2PO4, 42 mM Na2HPO4, 85 mM NaCl, 1 mM MgSO4) followed by sedimentation at 800×g. Washed nematode pellets were finally suspended in a small volume of M9 buffer, rapidly frozen in liquid nitrogen and stored at −80° C.
RNA isolation—Total RNA was isolated from mix-stage populations of C. elegans exposed to 100 μM CdCl2 for 8 h and 24 h and control, non-exposed nematodes. Frozen worms were first ground into a fine powder using a liquid nitrogen-cooled mortar and pestle. Powdered C. elegans (200 mg) were then homogenized in 2 ml of TRIzol (GIBCO/BRL). RNA was then collected from the aqueous phase following the addition of chloroform, precipitated by adding isopropyl alcohol and then air-dried. The dried RNA pellet was then dissolved in diethyl pyrocarbonate (DEPC)-treated water. For some experiments, poly(A^+) RNA was subsequently isolated using the Poly(A) Tract System following manufacturer's instructions (Promega).
Northern Blot Analysis-Samples of total RNA (20 μg) or poly(A^+) RNA (2 μg) were denatured in a 2.2M formaldehyde/50% (v/v) formamide buffer and then subjected to denaturing gel electrophoresis on a 1.5% agarose/2.2M formaldehyde gel. Size-fractionated RNAs were then transferred to Nytran membrane (Schleicher and Schuell). Membranes were probed with ^32P-labeled cDNA fragments of the differentially expressed mRNAs. cDNAs to be used as probes were generated by the PCR from the cloned DNA fragments recovered from differential display gels. cDNAs were labeled with [α-^32]dCTP (Amersham) by random-primed labeling. Membranes were hybridized in 6 ×SSC (1×SSC=0.15M sodium chloride, 15 mM sodium citrate, pH 7.0), 1.25× Denhardt's solution, 0.5% sodium dodecyl sulfate (SDS), 300 ng denatured sonicated salmon sperm DNA and heat-denatured probe at 42° C. for 16 h. Following hybridization, membranes were washed at a high stringency of 50° C. for 30 min in 0.1×SSC/0.1% SDS. The amount of probe hybridizing to the RNA was determined by PhosphorImager analysis (Molecular Dynamic System) . After images were obtained, membranes were incubated at 95° C. for 1 h in 0.1% SDS to remove the bound probe. They were then hybridized with a ^32P-labeled C. elegans myosin light-chain probe, which served as a loading control (Freedman, J. H. et al. (1993) J. Biol. Chem. 268, 2554-2564). As a positive control, membranes were also hybridized to a ^32P-labeled C. elegans metallothonein-2 (mtl-2) cDNA probe (Freedman, J. H. et al. (1993) J. Biol. Chem. 268, 2554-2564). Quantification of radioactivity was performed using the ImageQuant program (Molecular Dynamic System). Steady-state levels of mRNA expression were all normalized to that of the constitutively expressed myosin light-chain mRNAs (Freedman, J. H. et al. (1993) J. Biol. Chem. 268, 2554-2564; Cummins, C. et al. (198B) Mol. Cell. Biol 8, 5334-5349).

[2] = tested on: C. elegans; assay: mRNA differential display of control and cadmium-treated nematodes; type: in vivo, Caenorhabditis elegans; details: cadmium-treated C. elegans cDNA compared to the control
Experimental: as §1
RNA isolation—Total RNA was isolated from mix-stage populations of C. elegans exposed to 100 μM CdCl2 for 8 h and 24 h and control, non-exposed nematodes. […]

[Cl][Cd][Cl] [cadmium, CdCl2]
steady-state level of mtl-2 mRNA ([1]; 100 μM CdCl2 for 24 h vs control C. elegans): increased | Fold-change in mRNA levels following cadmium exposure, DDRT16 (Northern blot) ([1]; clone DDRT16, 24 hours, 100 μM CdCl2, value in parenthesis, by Northern blot): 3.5 fold | Fold-change in mRNA levels following cadmium exposure, VL1 (Northern blot) ([1]; 8 hours, 100 μM CdCl2, value in parenthesis, by Northern blot): (4.7) fold | Fold-change in mRNA levels following cadmium exposure, VL1 (Northern blot) ([1]; 24 hours, 100 μM CdCl2, value in parenthesis, by Northern blot): (5.2) fold | Fold-change in mRNA levels following cadmium exposure, VL19 (Northern blot) ([1]; clone VL19, 24 hours, 100 μM CdCl2, value in parenthesis, by Northern blot): 2.3 fold | Fold-change in mRNA levels following cadmium exposure, VL21 (Northern blot) ([1]; clone VL21, 24 hours, 100 μM CdCl2, value in parenthesis, by Northern blot): 2 fold and 2.0 fold | band intensity of VL9 cDNA in differential display [2]: decreased band intensity
